In the supplement of paper PMC11451515:

Tested on: P12-Ichikawa
Assay: cell viability relative to DMSO control; higher = less cytotoxic
Details: 48 h
How it was run: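 In 1536-well plates, 5 μl of leukemia cells were seeded per well: 500 cells/well for NOMO1 or SEM and 1000 cells/well for P12-Ichikawa. Each line had first been adapted for at least four passages in each medium. Library compounds in DMSO were pin-dosed at 11 threefold concentrations between 47 μM and 0.79 nM, and CellTiter-Glo One luminescence was read after 48 h at 37°C. Viability is a per-plate percentage relative to DMSO wells, with cell-free wells as background.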

[1] = HPLM + 10% dialyzed FBS, 0.000781 µM
[2] = HPLM + 10% dialyzed FBS, 0.00234 µM
[3] = HPLM + 10% dialyzed FBS, 0.00702 µM
[4] = HPLM + 10% dialyzed FBS, 0.0211 µM
[5] = HPLM + 10% dialyzed FBS, 0.0632 µM
[6] = HPLM + 10% dialyzed FBS, 0.19 µM
[7] = HPLM + 10% dialyzed FBS, 0.569 µM
[8] = HPLM + 10% dialyzed FBS, 1.71 µM
[9] = HPLM + 10% dialyzed FBS, 5.12 µM
[10] = HPLM + 10% dialyzed FBS, 15.4 µM
[11] = HPLM + 10% dialyzed FBS, 46.1 µM
[12] = RPMI 5 mM glucose + 10% FBS, 0.000781 µM
[13] = RPMI 5 mM glucose + 10% FBS, 0.00234 µM
[14] = RPMI 5 mM glucose + 10% FBS, 0.00702 µM
[15] = RPMI 5 mM glucose + 10% FBS, 0.0211 µM
[16] = RPMI 5 mM glucose + 10% FBS, 0.0632 µM
[17] = RPMI 5 mM glucose + 10% FBS, 0.19 µM
[18] = RPMI 5 mM glucose + 10% FBS, 0.569 µM
[19] = RPMI 5 mM glucose + 10% FBS, 1.71 µM
[20] = RPMI 5 mM glucose + 10% FBS, 5.12 µM
[21] = RPMI 5 mM glucose + 10% FBS, 15.4 µM
[22] = RPMI 5 mM glucose + 10% FBS, 46.1 µM
[23] = RPMI 5 mM glucose + 10% dialyzed FBS, 0.000781 µM
[24] = RPMI 5 mM glucose + 10% dialyzed FBS, 0.00234 µM
[25] = RPMI 5 mM glucose + 10% dialyzed FBS, 0.00702 µM
[26] = RPMI 5 mM glucose + 10% dialyzed FBS, 0.0211 µM
[27] = RPMI 5 mM glucose + 10% dialyzed FBS, 0.0632 µM
[28] = RPMI 5 mM glucose + 10% dialyzed FBS, 0.19 µM
[29] = RPMI 5 mM glucose + 10% dialyzed FBS, 0.569 µM
[30] = RPMI 5 mM glucose + 10% dialyzed FBS, 1.71 µM
[31] = RPMI 5 mM glucose + 10% dialyzed FBS, 5.12 µM
[32] = RPMI 5 mM glucose + 10% dialyzed FBS, 15.4 µM
[33] = RPMI 5 mM glucose + 10% dialyzed FBS, 46.1 µM

COC1=CC=CC2=C1C(=NC(=N2)C3=CC=CS3)NN4C(=O)\C=C(C)/C4=O
cell viability [1]: 94.4% | cell viability [2]: 98.3% | cell viability [3]: 104% | cell viability [4]: 92.5% | cell viability [5]: 93.2% | cell viability [6]: 86.5% | cell viability [7]: 62.2% | cell viability [8]: 56.8% | cell viability [9]: 19.7% | cell viability [10]: 4.94% | cell viability [11]: 1.01% | cell viability [12]: 90.6% | cell viability [13]: 93.7% | cell viability [14]: 92.2% | cell viability [15]: 92.9% | cell viability [16]: 84.7% | cell viability [17]: 75.4% | cell viability [18]: 62.8% | cell viability [19]: 59.7% | cell viability [20]: 21.3% | cell viability [21]: 4.06% | cell viability [22]: 0.767% | cell viability [23]: 87% | cell viability [24]: 90.7% | cell viability [25]: 94.6% | cell viability [26]: 86.7% | cell viability [27]: 87.8% | cell viability [28]: 74.1% | cell viability [29]: 62.3% | cell viability [30]: 54.9% | cell viability [31]: 23.7% | cell viability [32]: 3.09% | cell viability [33]: 0.857%

CC(=O)O[C@H]1C(=O)[C@]2(C)[C@@H](O)C[C@H]3OC[C@@]3(OC(C)=O)C2[C@H](OC(=O)C4=CC=CC=C4)[C@]5(O)C[C@H](OC(=O)[C@H](O)[C@@H](NC(=O)C6=CC=CC=C6)C7=CC=CC=C7)\C(=C1/C5(C)C)C (stereo not given in full)
cell viability [1]: 93.3% | cell viability [2]: 42.1% | cell viability [3]: 35.2% | cell viability [4]: 27.6% | cell viability [5]: 31.9% | cell viability [6]: 27.8% | cell viability [7]: 25.7% | cell viability [8]: 27.1% | cell viability [9]: 25% | cell viability [10]: 19.1% | cell viability [11]: 15.3% | cell viability [12]: 88.3% | cell viability [13]: 48% | cell viability [14]: 34.3% | cell viability [15]: 24% | cell viability [16]: 26.1% | cell viability [17]: 24.8% | cell viability [18]: 27.8% | cell viability [19]: 23% | cell viability [20]: 26% | cell viability [21]: 19.3% | cell viability [22]: 14.3% | cell viability [23]: 95.8% | cell viability [24]: 58.3% | cell viability [25]: 41.4% | cell viability [26]: 31.5% | cell viability [27]: 37.7% | cell viability [28]: 39.7% | cell viability [29]: 35.9% | cell viability [30]: 38.8% | cell viability [31]: 37.7% | cell viability [32]: 31.9% | cell viability [33]: 25.9%

C[C@H]1[C@H](NC(=O)/C(=N/OC(C)(C)C(=O)O)c2csc(N)n2)C(=O)N1[S+](=O)([O-])O
cell viability [1]: 108% | cell viability [2]: 116% | cell viability [3]: 109% | cell viability [4]: 102% | cell viability [5]: 106% | cell viability [6]: 117% | cell viability [7]: 111% | cell viability [8]: 105% | cell viability [9]: 109% | cell viability [10]: 95.3% | cell viability [11]: 103% | cell viability [12]: 99.3% | cell viability [13]: 102% | cell viability [14]: 97.1% | cell viability [15]: 102% | cell viability [16]: 101% | cell viability [17]: 106% | cell viability [18]: 101% | cell viability [19]: 110% | cell viability [20]: 98.4% | cell viability [21]: 93.4% | cell viability [22]: 97.3% | cell viability [23]: 81.3% | cell viability [24]: 101% | cell viability [25]: 101% | cell viability [26]: 102% | cell viability [27]: 110% | cell viability [28]: 102% | cell viability [29]: 101% | cell viability [30]: 93.8% | cell viability [31]: 93.3% | cell viability [32]: 99.4% | cell viability [33]: 92.3%

COC1CCC(CC1)N(C(=O)C2CCC(C)CC2)C3=C(SC(=C3)\C4=C\CCCC4)C(O)=O (stereo not given)
cell viability [1]: 118% | cell viability [2]: 118% | cell viability [3]: 116% | cell viability [4]: 111% | cell viability [5]: 108% | cell viability [6]: 113% | cell viability [7]: 111% | cell viability [8]: 104% | cell viability [9]: 95.3% | cell viability [10]: 83.5% | cell viability [11]: 60% | cell viability [12]: 109% | cell viability [13]: 112% | cell viability [14]: 109% | cell viability [15]: 108% | cell viability [16]: 92.8% | cell viability [17]: 106% | cell viability [18]: 105% | cell viability [19]: 98.2% | cell viability [20]: 94.9% | cell viability [21]: 88.7% | cell viability [22]: 65.6% | cell viability [23]: 103% | cell viability [24]: 105% | cell viability [25]: 111% | cell viability [26]: 110% | cell viability [27]: 101% | cell viability [28]: 102% | cell viability [29]: 105% | cell viability [30]: 97.6% | cell viability [31]: 98.9% | cell viability [32]: 77.8% | cell viability [33]: 63.9%

CC1(C)O[C@@H]2C[C@H]3[C@@H]4CCC5=CC(=O)C=C[C@]5(C)[C@@]4(F)[C@@H](O)C[C@]3(C)[C@]2(C(=O)CO)O1
cell viability [1]: 101% | cell viability [2]: 105% | cell viability [3]: 104% | cell viability [4]: 100% | cell viability [5]: 86.2% | cell viability [6]: 76.7% | cell viability [7]: 55.6% | cell viability [8]: 63.2% | cell viability [9]: 39.4% | cell viability [10]: 18.5% | cell viability [11]: 8.39% | cell viability [12]: 111% | cell viability [13]: 115% | cell viability [14]: 108% | cell viability [15]: 115% | cell viability [16]: 76.5% | cell viability [17]: 70.2% | cell viability [18]: 55.3% | cell viability [19]: 55.9% | cell viability [20]: 40% | cell viability [21]: 17.9% | cell viability [22]: 7.85% | cell viability [23]: 99.5% | cell viability [24]: 108% | cell viability [25]: 100% | cell viability [26]: 93.2% | cell viability [27]: 77.6% | cell viability [28]: 57.9% | cell viability [29]: 47.4% | cell viability [30]: 52.6% | cell viability [31]: 34% | cell viability [32]: 30.1% | cell viability [33]: 9.61%
